Residues, ends and D or L forms follow the SMILES beside them. *: point of attachment. Cbz = O=C(OCc1ccccc1)*
Key:
NRF2 [1] = experiment: Verification of doxycycline-inducible NRF2-shRNA in A549-ARE cells (Western blotting, luciferase, GFP); type: cell-based; details: doxycycline-induced, compared among three NRF2-shRNAs
Method: In order to construct a Tet-inducible shRNA expression system, the following shRNAs were inserted into a tet-pLKO-pyro vector (Dmitri Wiederschain: Addgene plasmid #21915) and then A549-ARE cell line expressing doxycycline-inducible NRF2-shRNA was established by the transduction.
Then, 0.2 μg/mL of doxycycline (DOX; Clontech) was treated every 2 days in the medium to induce NRF2-shRNA expression. Thereafter, the NRF2 expression inhibition efficiency was verified by Western blotting, luciferase activity measurement and GFP expression measurement using a fluorescence microscope.
(§1) Specifically, for Western blotting, the A549 cells expressing Tet-pLKO-NCshRNA (negative control) and three Tet-pLKO-NRF2 shRNAs were treated with doxycycline for 3 days and 6 days, followed by separation of proteins. Each separated 10 μg of the protein was loaded on 8% acrylamide gel, electrophoresed, transferred to nitrocellulose (NC) membrane, and NRF2 antibody (Cell signaling, 1:1000) and actin antibody (SCBT, 1:1000) were diluted in TBST (Tris-Buffered Saline with Tween 20) buffer containing 5% skim milk and reacted overnight at 4° C. Subsequently, the secondary antibody was reacted for 1 hour, washed with TBST, and the protein expression level was measured using ECL (Enhanced chemiluminescence).

NRF2 [2] = experiment: Western blotting of NRF2 protein in A549 cells; type: cell-based
Method: as §1
Firstly, the A549-tet-on cells transfected with the vector containing GCR-shRNA were constructed and after the treatment with doxycycline and clobetasol propionate, and protein extracts were prepared by hemolysis with cell lysis buffer (Cell signaling technology) supplemented with protease inhibitor cocktail (EMD millipore) to perform Western blotting. Then, western blotting was carried out in the same manner as in the Example 1. At this time, the concentration of the protein was determined by performing a Bradford assay according to the Example 1. In addition, luciferase assays were carried out in the same manner as in the Example 1.
(§2) According to accumulated research results, NRF2 protein levels can be regulated by mRNA transcription, or proteasome related degradation. To confirm whether NRF2 is suppressed through mRNA transcription inhibition or NRF2 is suppressed by promoting proteasome-related degradation, real-time PCR was performed on the cells, and MG132, a proteasome inhibitor, was treated and Western blotting was performed in the same manner as in the Example 1.
In general, proteasome degradation of the NRF2 protein consists of two pathways as shown in FIG. 5a: i.e. a pathway by KEAP1 and a pathway by GSK3-β-TrCP. […]

NRF2 [3] = experiment: ARE-luciferase assay for NRF2 activity in A549-ARE cells; type: cell-based
Method: In addition, A549-ARE cells were firstly dispensed into 5×10^3 cells per well in a 96 well plate, and each of the clinical compounds was treated with various concentrations (1 μM or 5 μM) after 24 hours. After 24 hours, 30 μl of a lysis buffer was added, and the mixture was dissolved at 4° C. for 40 minutes using a rocker. 20 μl of the dissolved product was added to a 96-well white plate and 100 μl of a luciferase substrate buffer having the following composition was added thereto and luciferase activity was measured by using a plate reader.
The remaining dissolved product was diluted five times with distilled water (DW) and the protein concentration was measured by the Bradford assay (BioRad). Specifically, 200 μl of the Bradford reagent (Coomassie Brilliant Blue G-250) diluted […] with distilled water was reacted with 5 μl of the remaining dissolved product and absorbance was measured at 595 nm. The protein concentration of the dissolved products was calculated by the same experiment using BSA solution as a standard protein. The luciferase value was calibrated by dividing the luciferase value measured above by the measured protein concentration.
Namely, the luciferase assays were performed using […] cells as the method of the Example 1.

NRF2 [4] = experiment: Western blotting of nuclear and cytoplasmic fractions (NRF2 migration to the nucleus); type: cell-based
From the text: Furthermore, GSK3 inhibits the migration of NRF2 to the nucleus, as known so far.

[5] = Xenograft assay, body weight / side effects; type: in vivo, Balb/c-nu mice; details: all treatment groups, 40 days
Method: On the other hand, xenograft assay was performed using A549 cell line. Specifically, Balb/c-nu mice (6-8 weeks of age, Orient Bio, Seongnam, Korea) were prepared to perform tumor genografts and A549-luc-C8 cells (Perkin Elmer, 5.0×10^6/head) were injected subcutaneously into the mice. Two weeks later, when the size of tumors reached 50-100 mm^3, mice were divided to 6 groups: a control group administered with only vehicle (200 μl of PBS containing 1.2% DMSO, 0.25% PEG 400 and 0.25% tween 80), a group administered with 0.5 mg/kg of clobetasol propionate (CP), a group administered with 1 mg/kg of clobetasol propionate, a group administered with 1 mg/kg of rapamycin, and Combination 1 (CP 0.5 mg/kg+rapamycin 1 mg/kg) and Combination 2 (CP 1 mg/kg+rapamycin 1 mg/kg). Then, for the next 40 days, the vehicle and rapamycin (n=5 per group) were injected intraperitoneally daily (5 days per week) and clobetasol propionate was injected intraperitoneally once every 2 days (3 days per week).
Primary tumor size and body weight were measured every 3 to 4 days by a caliper and a balance, and the volume of the tumor was V (mm^3)=(A×B^2)/2 (V is volume, A Is the long diameter and B is the short diameter).

[6] = test system: NRF2 target proteins (G6PD, PGD, ME1, GCLM, AKR1B10 and AKR1C3); experiment: Western blotting of NRF2 target proteins in KEAP1 mutant cells; type: cell-based; details: 2, 4 or 5 days
Method: In order to confirm the effect of glucocorticoid on cells having high NRF2-activity, KEAP1 mutant cells (A549 and H2228) were treated with clobetasol propionate for 2 days, 4 days or 5 days, the expression of major NRF2 target proteins (G6PD, PGD, ME1, GCLM, AKR1B10 and AKR1C3) associated with redox regulation was measured by the Western blotting. As a control, the cell was used, in which NRF2-shRNA was transformed to H2228 cell line to inhibit NRF2 expression.

[7] = test system: A549 and H2228 cell lines; experiment: Hydrogen peroxide (active oxygen) measurement with CMH2DCF-DA; type: cell-based
Method: In addition, because ME1 and GCLM proteins have detoxification activity of hydrogen peroxide, to confirm this change, the amount of hydrogen peroxide after the treatment with clobetasol propionate was measured as follows: The A549 and H2228 cell lines were cultured in 5 μM CMH2DCF-DA (Invitrogen) after the incubation for 30 minutes, the cultured cells were washed twice with phosphate buffered saline and incubated in the dark for 40 minutes with 90% dimethylsulfoxide (DMSO) and 10% PBS, and the fluorescent dye was released. After the culture, the supernatant of the culture liquid was dispensed into a 96-well plate and the amount of fluorescence was measured at 480/530 nm. For standardization of the measured fluorescence intensity, the cells remaining after removing the supernatant and washing with PBS, were stained with a crystal violet solution (20% methanol and 0.5% crystal violet) for 10 minutes at room temperature. After washing three times, the incubation was performed for solubilization in 1% SDS solution and absorbance at 570 nm was measured.

NRF2 [8] = experiment: Real-time PCR of NRF2 mRNA in A549 cells; type: cell-based
Method: as §2
Specifically, for real-time PCR, total RNA was extracted from A549 cells using TRIZol (Invitrogen). Then, 1 μg of total RNA was reverse transcribed to cDNA using oligo dT primer and SuperScript II Reverse Transcriptase according to the manufacturer's instructions (Invitrogen). Thereafter, PCR was performed according to the manufacturer's instructions (Affymetrix) using HotStart-IT SYBR Green qPCR Master Mix.

H460 = experiment: Soft agar assay, H460; type: cell-based; details: H460 (KEAP1-mutant, LKB1-mutant), sole treatment
Method: (§3) The synergistic anticancer effects of the treatment of clobetasol propionate sole and the combined use with rapamycin, an mTOR inhibitor on LKB1/KEAP1 normal lung cancer cell line H1299, KEAP1 mutant cell line H2228, LKB1/KEAP1 mutant lung cancer cell lines A549 and H460 were analyzed by soft agar assay. In order to confirm whether the tumor inhibitory effect of clobetasol propionate was due to NRF2 inhibition, the effect was compared with tumor suppression effect in NRF2 knock-down lung cancer cell line using NRF2-shRNA-2, which was used in the Example 2.
(§4) Specifically, […] of a 0.7% agar-containing DMEM medium was added into a 12-well plate and was solidified (bottom agar) and 300 μl of a DMEM medium containing 3×10^3 cells and 0.35% agar was placed on the solidified agar medium and solidified (top agar+/− Doxycycline). After solidification, 250 μl of DMEM medium (+/− Doxycycline) was added and the number of colonies formed after culturing for 2 weeks in a CO2 incubator was determined, and the result was shown in FIGS. 7a to 7e.
Thereafter, the synergistic effect was analyzed when clobetasol propionate and rapamycin were simultaneously treated, or NRF2 was knocked down using NRF2-shRNA and treated with rapamycin.

H1299 = experiment: Soft agar assay, H1299; type: cell-based; details: H1299 (KEAP1-normal, LKB1-normal), 2 weeks
Method: as §3, §4

A549-luc-C8 cells = experiment: Xenograft assay with A549 cell line, tumor volume; type: in vivo, Balb/c-nu mice; details: 40 days
From the text: Thereafter, mice were sacrificed in a 7.5% CO2 chamber and tumors were obtained for further analysis.

H2228 = experiment: Soft agar assay, H2228; type: cell-based; details: H2228 (KEAP1-mutant, LKB1-normal), 2 weeks
Method: as §3, §4

A549 = experiment: Soft agar assay, A549; type: cell-based; details: A549 (KEAP1-mutant, LKB1-mutant), 2 weeks
Method: as §3, §4

[9] = co-treatment with clobetasol propionate
[10] = KEAP1 mutant A549 cells, co-treatment with clobetasol propionate
[11] = A549-tet-on GCR-shRNA cells, effect blocked by inhibition of GCR expression

NRF2sh-2: doxycyclin-inducible NRF2-shRNA, SEQ. NO. 2 of Table 1 (CCGGGCTCCTACTGTGATGTGAAATCTCGAGATTTCACATCACAGTAGGAGCTTTTTG)
inhibition of NRF2 protein expression, luciferase activity and GFP signal (NRF2 [1]): most effectively

CC(C)C[C@@H](C=O)NC(=O)[C@H](CC(C)C)NC(=O)[C@H](CC(C)C)NC(=O)OCc1ccccc1 [MG132] (Cbz-Leu-Leu-Leu-aldehyde)
amount of NRF2 protein inhibited by clobetasol propionate, on MG132 treatment (NRF2 [2]; [9]): recovered | inhibition of NRF2 activity by glucocorticoids, on MG132 treatment (NRF2 [3]; [9]): does not recover

Cc1c[nH]c(-c2cnc(NCCNc3ccc(C#N)cn3)nc2-c2ccc(Cl)cc2Cl)n1 [GSK3 inhibitor, CT99021]
effect of clobetasol propionate on NRF2 migration into the nucleus, on GSK3 inhibitor treatment (NRF2 [4]; under the treatment of MG132, co-treatment with clobetasol propionate): completely blocked | NRF2 proteolysis induced by clobetasol propionate, on GSK3 inhibitor treatment (NRF2 [2]; [10]): inhibited | inhibition of activity of NRF2 induced by clobetasol propionate, on GSK3 inhibitor treatment (NRF2 [3]; [10]): inhibited

CO[C@H]1C[C@@H]2CC[C@@H](C)[C@@](O)(O2)C(=O)C(=O)N2CCCC[C@H]2C(=O)O[C@H]([C@H](C)C[C@@H]2CC[C@@H](O)[C@H](OC)C2)CC(=O)[C@H](C)/C=C(\C)[C@@H](O)[C@@H](OC)C(=O)[C@H](C)C[C@H](C)/C=C/C=C/C=C/1C [rapamycin]
body weight of the mice [5]: no significant change

CCC(=O)O[C@]1(C(=O)CCl)[C@@H](C)C[C@H]2[C@@H]3CCC4=CC(=O)C=C[C@]4(C)[C@@]3(F)[C@@H](O)C[C@@]21C [clobetasol propionate]
NRF2 target protein expression ([6]; A549 cell line): effectively inhibited | expression of NRF2 target which has antioxidative activity ([6]; H2228 cell line): effectively inhibited | migration of NRF2 into the nucleus (NRF2 [4]; under the treatment of MG132): inhibited | active oxygen (hydrogen peroxide) ([7]; A549): significantly increased | active oxygen (hydrogen peroxide) ([7]; H2228): significantly increased | body weight of the mice [5]: no significant change | mRNA level of NRF2 (NRF2 [8]): did not affect | cell growth (colonies in soft agar) (H460): slightly inhibited | cell growth (colonies in soft agar) (H1299): did not significantly affect | anticancer effect (tumor volume) (A549-luc-C8 cells; 0.5 mpk intraperitoneally once every 2 days): distinct anticancer effect | anticancer effect (tumor volume) (A549-luc-C8 cells; 1 mpk intraperitoneally once every 2 days): distinct anticancer effect | cell growth (colonies in soft agar) (H2228): strongly inhibited | level of the NRF2 protein (Western blot) (NRF2 [2]; [11]): significantly reduced | time for which inhibition of NRF2 activity was maintained (NRF2 [3]; 100 nM, measured at 8, 24 and 48 hours): at least 48 hours | NRF2 inhibitory effect at 1 μM compared among 13 GCs-based drugs (NRF2 [3]; 1 μM): most excellent inhibitory effect | activity of the NRF2 protein (luciferase) (NRF2 [3]; [11]): significantly reduced | concentration from which excellent NRF2 inhibitory effect is shown (luciferase) (NRF2 [3]; concentration comparison of 13 GCs-based drugs): ≥ 1 nM | cell growth (colonies in soft agar) (A549): strongly inhibited
